Results as given in US8017725B2, “Use of heparin-binding domain of fibronectin for diagnosis and treatment of cancer” (Novartis Forschungesstiftung Zweigniederlassung Friedrich …, priority 2001, dated 2011).

How the values were obtained:
[1] = tested on: MDA-MB435 breast carcinoma cells; test: Adhesion assay (attachment on coated ECM substrata); assay type: cell-based, human
Procedure: (§1) 60-well microtiter plates (Nunc) were coated with 10 μg/ml ECM molecules giving rise to 1 μg/cm^2 (fibronectin and tenascin-C) and 4 μg/cm^2 (FNIII13) for 1 h at 37° C. ECM proteins were coated separately, starting with fibronectin, followed by tenascin-C, FNIII13 and BSA. The non-coated plastic surface was blocked with 1% heat-inactivated BSA in PBS giving rise to 10 μg/cm^2 protein. Similarly, mixed substrata of collagen I and laminin 1, respectively with tenascin-C were prepared and tenascin-C was detected by ELISA.
(§2) Efficient fibronectin and tenascin-C coating was determined by ELISA with an anti-fibronectin and anti-tenascin-C antibody (Fischer, D. et al (1995) J Biol Chem 270: 3378-3384), respectively and by PAGE analysis of lysed surface-bound ECM material combined with Coomassie Brilliant Blue staining. Before plating, cells were serum starved for 18 h in DMEM containing 1×ITS (insulin, transferrin, selene) supplement, trypsinised, trypsin was blocked with 100 μg/ml soybean trypsin inhibitor in PBS and, cells were resuspended in serum-free medium and counted. 200-500 cells per well were plated for the indicated time points, fixed by addition of glutaraldehyde (2% final concentration) for 15 minutes and stained with 0.1% crystalviolet in 20% methanol for 30 minutes. Cells were observed under a Nikon microscope (Nikon diaphot) and pictures were taken with a Nikon camera.

[2] = tested on: CHO-B2 cells; test: as above; assay type: cell-based, Chinese hamster; settings: CHO-B2, 20 h adhesion, ITS
Procedure: as §1, §2
(§3) The inventors tested whether expression of integrins capable of binding to fibronectin influences tenascin-C-induced compromised attachment on fibronectin. CHO-K1 cells (which express moderate levels of α5β1 (Bauer, J. S. et al (1992) J Cell Biol 116: 477-487)) were compared for levels of adhesion on fibronectin and other ECM substrates with that of cells that either express essentially no fibronectin binding integrins (CHO-B2), or overexpress α5β1 (CHO-B2α27) and αvβ1 (CHO-B2v7), respectively (Schreiner, C. et al (1991) Cancer Res 51: 1738-1740).

[3] = tested on: CHO-B2α27 cells; test: as above; assay type: cell-based, Chinese hamster; settings: CHO-B2α27, 20 h adhesion, ITS
Procedure: as §1, §2, §3

[4] = tested on: CHO-K1 cells; test: as above; assay type: cell-based, Chinese hamster; settings: CHO-K1, 20 h adhesion, ITS
Procedure: as §1, §2, §3

[5] = tested on: all cell lines tested; test: DNA replication assay, all cell lines tested; assay type: cell-based
Procedure: (§4) 96-well plates (Falcon) were coated as described above. Cells were serum starved overnight and trypsinised as described. 10^4 cells were transferred onto the coated plates in the presence of the indicated mitogens. 14 h later cells were labelled with radioactive ^3H-thymidine (0.5 μCi/well) for 4 h at 37° C., incorporated ^3H-thymidine was precipitated with 10% TCA and determined with a Beckman scintillation counter after cell lysis in 0.3N NaOH, 2% SDS. For long-term cell proliferation assays 2×10^3 MDA-MB435 cells were plated into ECM-coated 96-well plates in the presence of 10 ng/ml insulin and incubated for the indicated time points in a humidified chamber at 37° C. in a CO^2-incubator. 50% fresh medium with growth factor was added every 24 h. At different time points cells were trypsinised and counted.
In order to address whether tenascin-C alone and in ECM contexts other than fibronectin might also enhance proliferation, an investigation was carried out into DNA synthesis on a pure tenascin-C substratum where cells remained rounded and, on mixed substrata of collagen I and laminin 1 that contained tenascin-C where cells spread normally. […] To rule out that tenascin-C may shorten S-phase of the cell cycle in tumour cells, DNA synthesis of T98G cells was determined by assay every two hours starting 11 h after plating. […]

[6] = tested on: T98G glioblastoma cells; test: Adhesion assay (attachment and spreading on coated ECM substrata); assay type: cell-based, human
Procedure: as §1, §2

[7] = tested on: T98G glioblastoma cells; test: DNA replication assay (3H-thymidine incorporation); assay type: cell-based, human; settings: 40 ng/ml PDGF-BB
Procedure: as §4
(§5) Cell proliferation and DNA synthesis of MDA-MB435 breast carcinoma, T98G glioblastoma, and Chinese hamster ovary […] cells (CHO) grown on fibronectin, tenascin-C and on mixed fibronectin/tenascin-C substrata was determined. […] After 27 h, 51 h, and 75 h cells were counted. 24% and 33% more cells were counted on fibronectin/tenascin-C than on fibronectin after 51 h and 75 h of culturing, respectively. […]
(§6) DNA replication was determined by ^3H-thymidine incorporation and is described as relative increase in cpm over cells plated on fibronectin. […]

[8] = tested on: MDA-MB435 breast carcinoma cells; test: DNA replication assay (3H-thymidine incorporation); assay type: cell-based, human; settings: MDA MB 435, 100 ng/ml insulin
Procedure: as §4, §5, §6

[9] = tested on: CHO-B2 cells; test: DNA replication assay (3H-thymidine incorporation); assay type: cell-based, Chinese hamster; settings: CHO-B2, ITS
Procedure: as §4
(§7) DNA replication was determined by ^3H-thymidine incorporation and is described as relative increase in cpm over cells plated on fibronectin. Serum starved cells were triggered to enter S-phase by 40 ng/ml PDGF-BB (a), 100 ng/ml insulin (b) and ITS (c).

[10] = tested on: CHO-B2α27 cells; test: DNA replication assay (3H-thymidine incorporation); assay type: cell-based, Chinese hamster; settings: CHO-B2α27, ITS
Procedure: as §4, §7

[11] = tested on: CHO-K1 cells; test: DNA replication assay (3H-thymidine incorporation); assay type: cell-based, Chinese hamster; settings: CHO-K1, ITS
Procedure: as §4, §7

[12] = tested on: tumour cell lines; test: Adhesion assay on tumour cell lines; assay type: cell-based
Procedure: as §1
as §2, with “camera. […]” for “camera.”

Substance: TN: Full length chicken tenascin-C TN260, recombinant, expressed in HEK-293 cells, used as coated substratum
- numbers of attached cells ([1]; MDA MB 435, 1 h attachment, serum free medium): 8.2 +/− 3.9 % of cells attached on fibronectin
- numbers of attached cells ([1]; MDA MB 435, 20 h adhesion, 100 ng/ml insulin): 4.0 +/− 0.2 % of cells attached on fibronectin
- numbers of attached cells [2]: 8.0 +/− 2.9 % of cells attached on fibronectin
- numbers of attached cells [3]: 4.3 +/− 0.7 % of cells attached on fibronectin
- numbers of attached cells [4]: 4.7 +/− 0.2 % of cells attached on fibronectin
- DNA replication indices increase on pure tenascin-C [5]: ≤ 11 fold
- numbers of attached cells ([6]; 1 h attachment, serum free medium): 9.3 +/− 0.9 % of cells attached on fibronectin
- numbers of attached cells ([6]; 20 h adhesion, 40 ng/ml PDGF-BB): 14.6 +/− 0.4 % of cells attached on fibronectin
- DNA replication by 3H-thymidine incorporation [7]: 3.0 +/− 0.9 relative increase in cpm over cells plated on fibronectin
- DNA replication by 3H-thymidine incorporation [8]: 2.7 +/− 0.6 relative increase in cpm over cells plated on fibronectin
- DNA replication by 3H-thymidine incorporation [9]: 7.1 +/− 0.2 relative increase in cpm over cells plated on fibronectin
- DNA replication by 3H-thymidine incorporation [10]: 11 +/− 3.9 relative increase in cpm over cells plated on fibronectin
- DNA replication by 3H-thymidine incorporation [11]: 5.9 +/− 1.7 relative increase in cpm over cells plated on fibronectin
- cells attached on tenascin-C ([12]; 1 h after plating, all cell lines tested): less than 10%
- blocking of cell attachment on fibronectin ([12]; molar ratio of tenascin-C to fibronectin of 1:8): blocked cell attachment on fibronectin as efficiently as in an equimolar ratio
